Patent US20250073232A1, “COMBINATIONS OF LSD1 INHIBITORS FOR TREATING MYELOID CANCERS” (ORYZON GENOMICS, S.A., priority 2021, published 2025)

Tests used:
[1] = system: MOLM-13; experiment: Single agent viability assay (96 hours, alamarBlue); assay type: cell-based; conditions: for EC50: Homo sapiens, 96 hours incubation
Protocol: (§1) Mycoplasma-free AML cell lines were maintained in RPMI 10% FBS medium at 37° C. in a humidified incubator with controlled 5% CO2 atmosphere. Cell freezing and thawing was performed following recommendation from ATCC. Genetic profiling of the cell lines used is available in Table 1.
(§2) Cells were seeded in 96-well plates at the optimal density to guarantee linear growth throughout the assay (8000 cells/well for MV(4; 11), 4000 cells/well for MOLM-13 and OCI-AML3, 2000 cells/well for TF1a) in 50 μL of medium. Each experimental condition was tested in technical triplicates, including medium-only and vehicle-treated controls for background correction and normalization, respectively. After seeding, 50 μL of medium containing 9 serial dilutions (1:3) of 2×-concentrated compound were added to the cells to obtain 100 μL of cells with 1×-concentrated compound at each dilution. Cells were then incubated for 96 hours at 37° C. in a controlled 5% CO2 atmosphere, prior to evaluation of cell viability using alamarBlue™ cell viability reagent (ThermoFisher Scientific, Waltham, MA/USA). AlamarBlue™ is a cell viability indicator that uses the natural reducing power of living cells to convert resazurin to the fluorescent molecule, resorufin. Briefly, alamarBlue™ stock solution was diluted 1:20 in the culture medium and after 3 hours incubation fluorescence was measured using a TECAN Infinity 2000 plate reader (Tecan Group Ltd., Männedorf, CH; 540-570 nm excitation wavelength, 580-610 nm emission wavelength). For each condition, the average fluorescence was calculated from the 3 technical replicates; background correction was calculated from the fluorescence of medium-only controls. Data were analyzed using the GraphPad PRISM® version 9.0.1 (GraphPad Software, Inc., La Jolla, CA/USA) to calculate the best-fitting curves and the EC50 values.

[2] = system: MV(4; 11); experiment: as above; assay type: cell-based; conditions: for EC50: Homo sapiens, MV4-11, 96 hours incubation
Protocol: as §1, §2

[3] = system: R/R AML; conditions: R/R AML patients treated with gilteritinib; cited from earlier work
[4] = system: OCI-AML3; experiment: Single agent viability assay (96 hours, alamarBlue); assay type: cell-based; conditions: for EC50: Homo sapiens; for EC50 range in words / reduction of viability (compared to vehicle controls): single agent, 96 hours
Protocol: as §1, §2

[5] = system: TF-1a; experiment: as above; assay type: cell-based; conditions: for EC50 range in words / reduction of viability (compared to vehicle controls): 96 hours; for EC50: TF-1a
Protocol: as §1, §2

[6] = OCI-AML-3, single agent, 96 hours incubation
[7] = single agent, 96 hours incubation

Compound | EC50 range in words ([1]; 96 hours) | EC50 [1] [nM] | EC50 range in words ([2]; 96 hours) | EC50 [2] [nM] | R/R AML patients showing complete remission [3] [%] | relapse-free survival [3] | reduction of viability (compared to vehicle controls) ([1]; 96 hours) [%] | EC50 [4, 6] [nM] | EC50 range in words [4] | reduction of viability (compared to vehicle controls) [4] | EC50 range in words ([5]; TF1a, single agent) | reduction of viability (compared to vehicle controls) ([5]; TF1a, single agent) | EC50 [5, 7] [nM] | reduction of viability (compared to vehicle controls) ([2]; 96 hours) [%] | EC50 ([4]; OCI-AML-3, tested following the method described above) [nM] | EC50 ([5]; TF1a, tested following the method described above) [nM]
COc1ccc(-c2c(-c3ccc(C#N)c(F)c3)nc(N3CCC(N)CC3)n(C)c2=O)cc1F [CC-90011, 4-[2-(4-aminopiperidin-1-yl)-5-(3-fluoro-4-methoxyphenyl)-1-methyl-6-oxo-1,6-dihydropyrimidin-4-yl]-2-fluorobenzonitrile] | nanomolar range | 1.49 | nanomolar range | 2.3 |  |  |  |  |  |  |  |  |  |  |  | 
CN1CCN(C(=O)[C@H](CCCN[C@@H]2C[C@H]2c2ccc(F)cc2)NC(=O)c2ccc(-n3ccnn3)cc2)CC1 [bomedemstat, N-[(2S)-5-{[(1R,2S)-2-(4-fluorophenyl)cyclopropyl]amino}-1-(4-methylpiperazin-1-yl)-1-oxopentan-2-yl]-4-(1H-1,2,3-triazol-1-yl) benzamide] | nanomolar range | 6.08 | nanomolar range | 3.73 |  |  |  |  |  |  |  |  |  |  |  | 
CCc1nc(C(N)=O)c(Nc2ccc(N3CCC(N4CCN(C)CC4)CC3)c(OC)c2)nc1NC1CCOCC1 [gilteritinib, 6-ethyl-3-[[3-methoxy-4-[4-(4-methylpiperazinyl)piperidin-1-yl]phenyl]amino]-5-[(tetrahydro-2H-pyran-4-yl)amino]pyrazine-2-carboxamide] | nanomolar range | 2.91 | nanomolar range | 0.77 | 21 | around 4 months | ~100 | 1160 | micromolar range | > 70% | micromolar range | > 70% | 1020 | ~100 |  | 
N[C@H]1CC[C@H](N[C@@H]2C[C@H]2c2ccccc2)CC1 [iadademstat, (trans)-N1-((1R,2S)-2-phenylcyclopropyl)cyclohexane-1,4-diamine] | sub-nanomolar range | 0.39 | sub-nanomolar range | 0.43 |  |  |  | 0.38 | sub-nanomolar range | greater than 20% | sub-nanomolar range | greater than 20% | 0.35 |  |  | 
CC1(C)CCC(CN2CCN(c3ccc(C(=O)NS(=O)(=O)c4ccc(NCC5CCOCC5)c([N+](=O)[O-])c4)c(Oc4cnc5[nH]ccc5c4)c3)CC2)=C(c2ccc(Cl)cc2)C1 [venetoclax] |  |  |  |  |  |  |  |  |  |  |  |  |  |  | > 10000 | > 10000
